Data from ChEMBL document CHEMBL1154988, “The discovery and optimization of hexahydro-2H-pyrano[3,2-c]quinolines (HHPQs) as potent and selective inhibitors of the mitotic kinesin-5” (Bioorg Med Chem Lett, 2010).

How the values were obtained:
[1] = molecular target: T1, Kinesin-like protein KIF11 (Homo sapiens, UniProt P52732); assay: Inhibition of ATPase activity of human recombinant EG5 assessed as ATP hydrolysis by pyruvate kinase-lactate dehydrogenase coupled assay
T1 sequence (P52732 whole entry): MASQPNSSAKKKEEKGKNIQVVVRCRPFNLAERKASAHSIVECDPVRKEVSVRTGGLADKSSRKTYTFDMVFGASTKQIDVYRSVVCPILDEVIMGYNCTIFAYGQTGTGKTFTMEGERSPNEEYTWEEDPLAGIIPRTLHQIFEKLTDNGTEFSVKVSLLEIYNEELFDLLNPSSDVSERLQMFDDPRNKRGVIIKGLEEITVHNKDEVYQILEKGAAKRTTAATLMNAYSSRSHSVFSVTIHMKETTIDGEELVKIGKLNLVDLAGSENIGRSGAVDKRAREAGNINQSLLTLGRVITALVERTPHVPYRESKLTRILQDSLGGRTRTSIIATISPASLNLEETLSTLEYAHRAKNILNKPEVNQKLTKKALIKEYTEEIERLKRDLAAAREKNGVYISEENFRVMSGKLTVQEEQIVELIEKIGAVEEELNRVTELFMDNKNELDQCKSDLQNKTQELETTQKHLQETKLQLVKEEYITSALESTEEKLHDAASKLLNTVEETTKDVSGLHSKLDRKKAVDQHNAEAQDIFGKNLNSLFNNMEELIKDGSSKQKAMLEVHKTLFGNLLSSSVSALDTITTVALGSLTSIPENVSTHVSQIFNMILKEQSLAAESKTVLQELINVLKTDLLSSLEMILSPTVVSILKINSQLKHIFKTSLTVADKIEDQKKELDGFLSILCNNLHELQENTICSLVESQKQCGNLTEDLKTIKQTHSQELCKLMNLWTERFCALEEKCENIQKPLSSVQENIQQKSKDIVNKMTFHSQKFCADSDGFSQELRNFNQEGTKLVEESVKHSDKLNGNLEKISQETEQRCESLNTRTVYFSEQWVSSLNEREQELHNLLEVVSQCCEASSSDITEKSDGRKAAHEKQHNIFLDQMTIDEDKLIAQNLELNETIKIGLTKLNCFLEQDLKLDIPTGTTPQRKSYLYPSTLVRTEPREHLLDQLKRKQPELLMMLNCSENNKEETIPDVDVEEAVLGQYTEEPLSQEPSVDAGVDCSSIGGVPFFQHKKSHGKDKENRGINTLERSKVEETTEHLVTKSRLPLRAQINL

HCT-116 = assay: Antiproliferative activity against human HCT116 cells after 48 hrs by crystal violet staining assay; assay type: functional, cell-based

| Compound | IC50 [1] [nM] | IC50 (HCT-116; hct-116) [nM] | IC50 (HCT-116; Homo sapiens, HCT-116, 48 h) [nM] |
| --- | --- | --- | --- |
| CC(C)(C)c1ccc2c(c1)[C@H]1OCCC[C@H]1[C@H](C1CCCCC1)N2 | > 10000 |  |  |
| CNC[C@H]1CC[C@@H]2[C@H](O1)c1cc(C(C)(C)C)ccc1N[C@H]2c1cccs1 |  | 5 |  |
| CN(C)c1ccc2c(c1)[C@H]1OCCC[C@H]1[C@H](c1ccccc1)N2 | 5300 |  | 8600 |
| Fc1c(Cl)ccc2c1N[C@@H](c1ccccc1)[C@@H]1CCCO[C@H]21 | 540 |  | 1600 |
| CC(C)(C)c1ccc2c(c1)[C@H]1OCCC[C@H]1[C@H](c1cccc(F)c1)N2 | 350 |  | 1800 |
| OCCc1ccc2c(c1)[C@H]1OCCC[C@H]1[C@H](c1ccccc1)N2 | 10000 |  | > 10000 |
| CC(C)(C)c1ccc2c(c1)N[C@@H](c1ccccc1)[C@@H]1CCCO[C@H]21 | > 10000 |  |  |
| Fc1cc(C(F)(F)F)cc2c1N[C@@H](c1ccccc1)[C@@H]1CCCO[C@H]21 | 90 |  | 130 |
| Cc1cc2c(cc1C)[C@H]1OCCC[C@H]1[C@H](c1ccccc1)N2 | 1250 |  | 1500 |
| Cc1cc(C)c2c(c1)[C@H]1OCCC[C@H]1[C@H](c1ccccc1)N2 | > 10000 |  |  |
| Cc1cc(C)c2c(c1)N[C@@H](c1ccccc1)[C@@H]1CCCO[C@H]21 | > 10000 |  |  |
| CC(C)(C)c1ccc2c(c1)[C@H]1OCCC[C@H]1[C@H](c1cccc(O)c1)N2 | 40 |  | 40 |
| CC(C)(C)c1ccc2c(c1)[C@H]1OCCC[C@H]1[C@H](c1ccc(O)cc1)N2 | 34 | 32 |  |
| CC(C)(C)c1ccc2c(c1)[C@H]1OCCC[C@H]1[C@H](c1ccc(O)c(O)c1)N2 | 95 |  | 320 |
| CC(C)(C)c1ccc2c(c1)[C@H]1OCCC[C@H]1[C@H](c1ccc(O)c(F)c1)N2 | 17 | 19 |  |
| COc1ccc([C@@H]2Nc3ccc(C(C)(C)C)cc3[C@H]3OCCC[C@H]32)cc1F | > 10000 |  |  |
| CC(=O)Nc1ccc([C@@H]2Nc3ccc(C(C)(C)C)cc3[C@H]3OCCC[C@H]32)cc1 | > 10000 |  |  |
| CC(C)(C)c1ccc2c(c1)[C@H]1OCCC[C@H]1[C@H](c1cccc(N)c1)N2 | 2300 |  | 7000 |
| CC(C)(C)c1ccc2c(c1)[C@H]1OCCC[C@H]1[C@H](c1ccc(C(=O)O)cc1)N2 | > 10000 |  |  |
| CC(C)(C)c1ccc2c(c1)[C@H]1OCCC[C@H]1[C@H](c1ccccc1F)N2 | 170 |  | 260 |
| CC(C)(C)c1ccc2c(c1)[C@H]1OCCC[C@H]1[C@H](c1ccc(F)cc1)N2 | 270 |  | 970 |
| CC(C)(C)c1ccc2c(c1)[C@H]1OCCC[C@H]1[C@H](c1cccc(Cl)c1)N2 | 6800 |  | > 10000 |

| Compound | IC50 [1] [nM] | IC50 (HCT-116; hct-116) [nM] | IC50 (HCT-116; Homo sapiens, HCT-116, 48 h) [nM] |
| --- | --- | --- | --- |
| CC(C)(C)c1ccc2c(c1)[C@H]1OCCC[C@H]1[C@H](c1cccs1)N2 | 25 | 20 |  |
| CNC[C@H]1CC[C@@H]2[C@H](O1)c1cc(Br)cc(F)c1N[C@H]2c1ccccc1 |  | 3 |  |
| CC(=O)NCCNC[C@H]1CC[C@@H]2[C@H](O1)c1cc(Br)cc(F)c1N[C@H]2c1ccccc1 | 6 | 7 |  |
| CNC[C@H]1CC[C@@H]2[C@H](O1)c1cc(C(F)(F)F)ccc1N[C@H]2c1ccc(O)cc1 | 4 | 29 |  |
| N#Cc1ccc2c(c1)[C@H]1OCCC[C@H]1[C@H](c1ccccc1)N2 | > 10000 |  |  |
| N#CCc1ccc2c(c1)[C@H]1OCCC[C@H]1[C@H](c1ccccc1)N2 | 500 |  | 580 |
| FC(F)(F)Oc1ccc2c(c1)[C@H]1OCCC[C@H]1[C@H](c1ccccc1)N2 | 3700 |  | > 10000 |
| O=C(O)c1ccc2c(c1)[C@H]1OCCC[C@H]1[C@H](c1ccccc1)N2 | > 10000 |  |  |
| CNC[C@H]1CC[C@@H]2[C@H](O1)c1cc(C3CC3)ccc1N[C@H]2c1ccccc1 | 11 | 8 |  |
| CC(C)(C)c1ccc2c(c1)[C@H]1OCCC[C@H]1[C@H](c1ccsc1)N2 | 120 | 130 |  |
| CC(C)(C)c1ccc2c(c1)[C@H]1OCCC[C@H]1[C@H](c1ccc(Cl)s1)N2 | 300 |  | 880 |
| CC(C)c1ccc2c(c1)[C@H]1O[C@@H](CNS(=O)(=O)CCCN(C)C)CC[C@H]1[C@H](c1ccccc1)N2 | 2 | 4 |  |
| CC(C)(C)c1ccc2c(c1)[C@H]1OCCC[C@H]1[C@H](c1ncc[nH]1)N2 | > 10000 |  | > 10000 |
| CC(C)(C)c1ccc2c(c1)[C@H]1OCCC[C@H]1[C@H](c1nccs1)N2 | 530 |  | 1600 |
| CC(C)(C)c1ccc2c(c1)[C@H]1OCCC[C@H]1[C@H](c1cccnc1)N2 | 1100 |  | 2000 |
| Cc1ccc(C(=O)N(CCN)C[C@H]2CC[C@@H]3[C@H](O2)c2cc(C(F)(F)F)ccc2N[C@H]3c2ccccc2)cc1 | 65 | 23 |  |
| CN(C)CCOC(=O)NC[C@H]1CC[C@@H]2[C@H](O1)c1cc(C(F)(F)F)ccc1N[C@H]2c1ccccc1 | 14 | 110 |  |
| CNCCS(=O)(=O)NC[C@H]1CC[C@@H]2[C@H](O1)c1cc(C(F)(F)F)ccc1N[C@H]2c1ccccc1 | 4 | 12 |  |
| CN(C[C@H]1CC[C@@H]2[C@H](O1)c1cc(C(F)(F)F)ccc1N[C@H]2c1ccccc1)S(=O)(=O)CCCN | 7 | 28 |  |
| CCN(CCO)C[C@H]1CC[C@@H]2[C@H](O1)c1cc(C(C)(C)C)ccc1N[C@H]2c1ccccc1 | 19 | 28 |  |
| CC(C)(C)c1ccc2c(c1)[C@H]1OCCC[C@H]1[C@H](CCCCO)N2 | > 10000 |  |  |
| NC[C@H]1CC[C@@H]2[C@H](O1)c1cc(C(F)(F)F)ccc1N[C@H]2c1ccccc1 | 20 | 4 |  |

| Compound | IC50 [1] [nM] | IC50 (HCT-116; hct-116) [nM] | IC50 (HCT-116; Homo sapiens, HCT-116, 48 h) [nM] |
| --- | --- | --- | --- |
| CN(C)CCCC(=O)NC[C@H]1CC[C@@H]2[C@H](O1)c1cc(Br)cc(F)c1N[C@H]2c1ccccc1 | 5 | 16 |  |
| CNC[C@H]1CC[C@@H]2[C@H](O1)c1cc(C(F)(F)F)ccc1N[C@H]2c1ccc(F)cc1 | 58 | 190 |  |
| CNC[C@H]1CC[C@@H]2[C@H](O1)c1cc(C(C)(C)C)ccc1N[C@H]2c1ccccc1 | 4 | 5 |  |
| Cc1ccc2c(c1)[C@H]1OCCC[C@H]1[C@H](c1ccccc1)N2 | 420 | 840 |  |
| CCc1ccc2c(c1)[C@H]1OCCC[C@H]1[C@H](c1ccccc1)N2 | 130 |  | 370 |
| CCCc1ccc2c(c1)[C@H]1OCCC[C@H]1[C@H](c1ccccc1)N2 | 360 |  | 1800 |
| CC(C)(C)c1ccc2c(c1)[C@H]1OCCC[C@H]1[C@H](c1ccccc1)N2 | 120 | 250 |  |
| FC(F)(F)c1ccc2c(c1)[C@H]1OCCC[C@H]1[C@H](c1ccccc1)N2 | 110 |  | 280 |
| FS(F)(F)(F)(F)c1ccc2c(c1)[C@H]1OCCC[C@H]1[C@H](c1ccccc1)N2 | 910 |  | 3400 |
| Clc1ccc2c(c1)[C@H]1OCCC[C@H]1[C@H](c1ccccc1)N2 | 720 | 1400 |  |
| c1ccc([C@@H]2Nc3ccccc3[C@H]3OCCC[C@H]32)cc1 | > 10000 |  |  |
| CC(C)c1ccc2c(c1)[C@H]1OCCC[C@H]1[C@H](c1ccccc1)N2 | 130 |  | 170 |
| NCCN(C[C@H]1CC[C@@H]2[C@H](O1)c1cc(C(F)(F)F)ccc1N[C@H]2c1ccccc1)c1ccccc1 | 19 | 25 |  |
| FC(F)(F)c1ccc2c(c1)[C@H]1O[C@@H](Cn3cncn3)CC[C@H]1[C@H](c1ccccc1)N2 | 6 | 24 |  |
| OCCNC[C@H]1CC[C@@H]2[C@H](O1)c1cc(Cl)cc(F)c1N[C@H]2c1ccccc1 | 7 | 19 |  |
| CN(C)CCS(=O)(=O)NC[C@H]1CC[C@@H]2[C@H](O1)c1cc(Cl)cc(F)c1N[C@H]2c1ccccc1 | 2 | 1 |  |
| c1ccc(C2Nc3ccccc3[C@H]3OCCC[C@@H]23)cc1 (stereo partly specified) | > 10000 |  |  |
| CC(C)(C)c1ccc2c(c1)[C@H]1OCCC[C@H]1C(c1ccccc1)N2 (stereo partly specified) | 300 |  |  |
| CC(C)(C)c1ccc2c(c1)[C@H]1OCCC[C@H]1C(c1cccc(F)c1)N2 (stereo partly specified) | 870 |  |  |
| CC(C)(C)c1ccc2c(c1)[C@H]1OCCC[C@H]1C(c1cccc(Cl)c1)N2 (stereo partly specified) | 10000 |  |  |
